From PubChem BioAssay AID602210 (Sanford-Burnham Center for Chemical Genomics, 2012)
Activity calls are given as the source filed them. No rule for the calls is given here.

Experiment: H9c2 cardiomyoblast viability modulators under 2-DG – cell-based, ATPlite luminescence, rat, set 2, myocardial damage modulator project, dose response (AID 602210)
Conditions: H9c2 rat cardiomyoblasts, 2-deoxyglucose-induced death, 2 h

SMILES: c1ccc(-c2nc(-n3ccnc3)nc(-n3ccnc3)n2)cc1
- IC50: 9.07 µM

SMILES: CCOc1ccc(CCNC(=O)c2cc3c(C)nccc3[nH]c2=O)cc1OCC
- IC50: 8.64 µM

SMILES: COc1ccc(CC(=O)N(Cc2ccccc2)c2ccccc2)cc1S(=O)(=O)N1CCOCC1
- IC50: 8.92 µM

SMILES: COc1ccc(CCn2c(=O)c3cccnc3n(Cc3ccc([N+](=O)[O-])cc3)c2=O)cc1OC
- IC50: 14.5 µM (inactive)

SMILES: COC(=O)c1ccc2c(=O)[nH]c(COC(=O)c3[nH]c(C)c(C(C)=O)c3C)nc2c1
- IC50: 9.12 µM

SMILES: O=C(N/N=C/c1ccc2c(c1)OCO2)c1ccc(NC(=O)c2ccccc2Cl)cc1
- IC50: 14.8 µM (inactive)

SMILES: COc1cccc(/C=N/NC(=O)c2nc(-c3ccccc3)cc(-c3ccccc3)n2)c1
- IC50: > 79 µM (inactive)

SMILES: COc1ccc(C(C(=O)NCc2ccccc2)N(Cc2cccs2)C(=O)c2cnccn2)cc1 (stereo not given)
- IC50: 23 µM (inactive)

SMILES: CCC(Oc1ccccc1)C(=O)Nc1ccccc1C(=O)N1CCCCC1 (stereo not given)
- IC50: 36.4 µM (inactive)

SMILES: COc1cc(NC(=O)c2cc([N+](=O)[O-])ccc2NC(=O)CN2CCN(c3ccccn3)CC2)cc(OC)c1
- IC50: > 79 µM (inactive)

SMILES: Cc1ccc(NC(=O)c2cc(=O)c3ccccc3o2)cc1S(=O)(=O)N1CCOCC1
- IC50: 29.6 µM (inactive)

SMILES: COc1ccc(OCC(O)Cn2c(Br)nc3c2c(=O)[nH]c(=O)n3C)cc1 (stereo not given)
- IC50: 38.1 µM (inactive)

SMILES: CCC(C)N1C(=O)S/C(=C/c2ccc3c(c2)n(C)c(=O)n3C)C1=O (stereo not given)
- IC50: > 79 µM (inactive)

SMILES: O=C(N/N=C/c1ccccn1)c1cc(-c2cccc3ccccc23)n[nH]1
- IC50: 20.7 µM (inactive)

SMILES: COc1ccc(-c2cc3nc(C)cc(N4CCN(C(=O)c5ccoc5)CC4)n3n2)cc1
- IC50: > 79 µM (inactive)

SMILES: Cn1c(=O)n(CCc2ccccc2)c(=O)c2c1nc1n2CCN1Cc1ccco1
- IC50: 19.3 µM (inactive)

SMILES: CCCN1C(=O)c2cc(C(=O)Nc3cccc(C(C)=O)c3)ccc2C1Nc1cccc(C(C)=O)c1 (stereo not given)
- IC50: 13.7 µM (inactive)

SMILES: CC(C)(C)C(=O)Nc1cccc(-c2nnc(-c3cccc(NC(=O)C(C)(C)C)c3)o2)c1
- IC50: 10.7 µM (inactive)

SMILES: c1cncc(-c2nc(NCC3COc4ccccc4O3)c3ccccc3n2)c1 (stereo not given)
- IC50: > 79 µM (inactive)

SMILES: CC(=O)N1CCN(c2ccccc2NC(=O)c2ccc(-c3cccc([N+](=O)[O-])c3)o2)CC1
- IC50: 6.88 µM

SMILES: CCOC(=O)c1c2c3c(cccc3n(C)c1=O)C(=O)c1ccccc1-2
- IC50: 15.8 µM (inactive)

SMILES: Fc1ccc(-n2cc(-c3ccccc3)c3c(N4CCOCC4)ncnc32)cc1
- IC50: 6.7 µM

SMILES: CCN(C[C@H]1N[C@@](Cc2ccccc2)(C(=O)OC)[C@H]2C(=O)N(C)C(=O)[C@@H]12)S(=O)(=O)c1ccc(OC)cc1
- IC50: > 79 µM (inactive)

SMILES: C[C@H](NC(=O)c1nc[nH]c1C(=O)NCC(=O)OCc1ccccc1)C(=O)OCc1ccccc1
- IC50: 2.8 µM

SMILES: COc1cccc(NC(=O)c2oc3ccc(S(=O)(=O)N4CCOCC4)cc3c2C)c1
- IC50: 19.5 µM (inactive)

SMILES: COc1cc(OC)cc(-c2cc3nc(C)c(CCC(=O)Nc4nc(C)cs4)c(C)n3n2)c1
- IC50: 6.24 µM

SMILES: O=C1OCCN1C(=O)[C@H]1[C@H](c2ccc([N+](=O)[O-])cc2)C(c2ccc(F)cc2)=NN1c1ccc(Br)cc1
- IC50: 8.93 µM

SMILES: CCn1nc(C(=O)Nc2nc(-c3ccccn3)cs2)c2ccccc2c1=O
- IC50: 6.65 µM

SMILES: CC1(C)Oc2ccc3ccc(=O)oc3c2/C(=C/Nc2ccccn2)C1=O
- IC50: 12.4 µM (inactive)

SMILES: O=C(c1ccc(-c2nc3ccccc3s2)o1)N1CCN(c2ccccc2O)CC1
- IC50: 13.2 µM (inactive)

SMILES: O=C(C[C@@H]1C/C=C/CC[C@@H](Cc2ccc(F)cc2)C(=O)O[C@@H](c2ccccc2)CNC1=O)NCCO
- IC50: 27.5 µM (inactive)

SMILES: COc1ccc(C=NNc2nc3c([nH]2)c(=O)n(C)c(=O)n3C)cc1
- IC50: 16.6 µM (inactive)

SMILES: Cc1cccc(NC(=O)c2nc[nH]c2C(=O)NCCCCNC(=O)c2[nH]cnc2C(=O)Nc2cccc(C)c2)c1
- IC50: 3.32 µM

SMILES: COc1ccc(OCC(O)Cn2c(Nc3cccc(C)c3)nc3c2c(=O)n(C)c(=O)n3C)cc1 (stereo not given)
- IC50: 34 µM (inactive)

SMILES: COc1cc(C(=O)Nc2cc3c(cc2N2CCCCC2)n(C)c(=O)n3C)cc(OC)c1OC
- IC50: 23.7 µM (inactive)
